Measurements as given in patent publication US10730875B2, “Substituted imidazo[1,2-A]pyridin-2-ylamine compounds, and pharmaceutical compositions and methods of use thereof” (JN Therapeutics, priority 2015, dated 2020).

Tests used:
[1] = molecular target: human Janus kinase 1 (JAK1), recombinant catalytic domain (Homo sapiens (Human), UniProt P23458); assay: LanthaScreen TR-FRET enzymatic assay, JAK1; type: biochemical; conditions: 1 mM ATP, GFP-STAT1 substrate, read-out: Inhibitory Activity IC50 JAK1
human Janus kinase 1 (JAK1), recombinant catalytic domain, sequence (P23458 866-1154): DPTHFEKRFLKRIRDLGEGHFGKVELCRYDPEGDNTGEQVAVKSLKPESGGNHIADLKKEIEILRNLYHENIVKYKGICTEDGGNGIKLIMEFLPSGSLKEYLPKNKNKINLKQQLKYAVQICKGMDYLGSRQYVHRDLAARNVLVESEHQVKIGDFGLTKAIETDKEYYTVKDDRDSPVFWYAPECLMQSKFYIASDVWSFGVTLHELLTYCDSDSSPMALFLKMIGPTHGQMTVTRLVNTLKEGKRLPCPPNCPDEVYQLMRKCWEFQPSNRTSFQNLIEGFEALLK
Method: (§1) The in vitro inhibition of recombinant human JAKs was determined as follow.
(§2) Compounds were tested in LANTHASCREEN™ time-resolved fluorescence energy transfer (TR-FRET) enzymatic assays from Invitrogen. The human Janus kinase 1 (JAK1) used in the assay is the recombinant JAK1 catalytic domain (amino acids 866-1154) expressed and purified from insect cells (Invitrogen, Cat. No. PV4774). The human Janus kinase 2 (JAK2) used in the assay is the recombinant JAK2 catalytic domain (amino acids 808-1132) expressed and purified from insect cells (Invitrogen, Cat. No. PV4210). The human Janus kinase 3 (JAK3) used in the assay is the recombinant JAK3 catalytic domain (amino acids 781-1124) expressed and purified from insect cells (Invitrogen, Cat. No. PV3855). The human tyrosine kinase 2 (TYK2) used in the assay is the recombinant TYK2 catalytic domain (amino acids 833-1187) expressed and purified from insect cells (Invitrogen, Cat. No. PV4790). The substrate is a recombinant STAT1 expressed as a fusion with GFP (Green Fluorescent Protein) to act as a physiological substrate (Invitrogen, Cat. No. PV5211).
(§3) Test compounds were prepared and diluted in DMSO in 3-fold serial dilutions for 10 doses to 100× of the final testing concentrations. The compounds were then further diluted to 4× by the kinase reaction buffer (Invitrogen, Cat. No. PV3189). The enzymatic reaction for compound testing was performed in a white 384-well polypropylene plate (Packard, Cat. No. 6005214) with a total reaction volume of 10 μL containing 440 ng/mL JAK1, 11 ng/mL JAK2, 400 ng/mL JAK3, or 200 ng/mL TYK2, 100 nM substrate, and 1 mM ATP. The assay started with loading 2.5 μL of JAK1, JAK2, JAK3, or TYK2 diluted in the kinase reaction buffer to wells, followed by addition of an equal volume of 4× compounds for 15-min incubation at room temperature for pre-treatment. The enzymatic reaction was initiated by addition of 5 μL of a mixture of the substrate and ATP prepared in the kinase reaction buffer. After one hour reaction, 10 μL mixture of EDTA (final 10 mM) and terbium-labeled anti-pSTAT1 (pTyr701) antibody (final 2 nM) (Invitrogen, Cat. No. PV4844) prepared in TR-FRET antibody dilution buffer (Invitrogen, Cat. No. PV3574) was added to stop the enzymatic reaction and produce TR-FRET signals. After 30 minutes of incubation at room temperature, the plate was read in Tecan Infinite F200 Pro with the following settings: Excitation 340 nm (30)/Emission1 495 nm (10)/Emission2 520 nm (25). The TR-FRET values were dimensionless numbers that were calculated as the ratio of the acceptor ([…]) signal to the donor (Terbium) signal. Percent of inhibition was calculated as (100%−percentage of compound-treated/DMSO vehicle-treated). The dose-response curves were generated and the IC50s were calculated by nonlinear sigmoid curve fitting using GraphPad Prism.
(§4) In Table 1, A represents a value no greater than 500 nM, B represents a value greater than 500 nM but no greater than 1 μM, C represents a value greater than 1 μM but no greater than 5 μM, and D represents a value greater than 5 μM. In Table 2, A′ represents a ratio of greater than 8, B′ represents a ratio of no greater than 8 but no less than 4, C′ represents a ratio of no greater than 4 but no less than 2, and D′ represents a ratio of no greater than 2. The selectivity is expressed as a ratio of the IC50 values of a compound against two kinases to be compared.

[2] = molecular target: human Janus kinase 2 (JAK2), recombinant catalytic domain (Homo sapiens (Human), UniProt O60674); assay: LanthaScreen TR-FRET enzymatic assay, JAK2; type: biochemical; conditions: for IC50: TR-FRET, 1 mM ATP, GFP-STAT1 substrate, read-out: Inhibitory Activity IC50 JAK2; for Selectivity JAK2/JAK1: ratio of IC50 against JAK2 over IC50 against JAK1
human Janus kinase 2 (JAK2), recombinant catalytic domain, sequence (O60674 808-1132): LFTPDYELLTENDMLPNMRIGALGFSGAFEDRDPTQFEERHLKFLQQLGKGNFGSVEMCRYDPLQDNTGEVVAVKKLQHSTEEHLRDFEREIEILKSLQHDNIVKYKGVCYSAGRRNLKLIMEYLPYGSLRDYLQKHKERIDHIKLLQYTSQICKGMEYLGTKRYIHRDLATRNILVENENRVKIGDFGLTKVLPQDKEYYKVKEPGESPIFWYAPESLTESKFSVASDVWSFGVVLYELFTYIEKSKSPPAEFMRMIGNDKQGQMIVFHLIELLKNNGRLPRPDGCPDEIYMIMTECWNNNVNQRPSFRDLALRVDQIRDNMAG
Method: as §1, §2, §3, §4

[3] = molecular target: human Janus kinase 3 (JAK3), recombinant catalytic domain (Homo sapiens (Human), UniProt P52333); assay: LanthaScreen TR-FRET enzymatic assay, JAK3; type: biochemical; conditions: TR-FRET, 1 mM ATP, GFP-STAT1 substrate; read-out: Inhibitory Activity IC50 JAK3
human Janus kinase 3 (JAK3), recombinant catalytic domain (Homo sapiens (Human), UniProt P52333), sequence (P52333 781-1124): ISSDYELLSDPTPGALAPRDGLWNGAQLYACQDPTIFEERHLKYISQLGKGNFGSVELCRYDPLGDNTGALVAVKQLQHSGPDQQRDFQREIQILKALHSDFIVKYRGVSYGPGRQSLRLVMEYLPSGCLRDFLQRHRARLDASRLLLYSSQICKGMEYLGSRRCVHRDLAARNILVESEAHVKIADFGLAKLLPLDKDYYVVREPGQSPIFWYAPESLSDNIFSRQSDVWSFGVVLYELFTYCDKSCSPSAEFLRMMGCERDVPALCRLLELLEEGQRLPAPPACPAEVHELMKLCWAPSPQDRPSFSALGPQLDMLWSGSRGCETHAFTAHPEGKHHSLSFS
Method: as §1, §2, §3, §4

[4] = system: human Janus kinase 3 (JAK3), recombinant catalytic domain; assay: LanthaScreen TR-FRET enzymatic assay, JAK3; type: biochemical; conditions: ratio of IC50 against JAK3 over IC50 against JAK1
Method: as §1, §2, §3, §4

[5] = molecular target: JAK1 (Homo sapiens (Human), UniProt P23458); assay: Cellular JAK1 assay: IL-6-mediated STAT3 phosphorylation in TF-1 cells; type: cell-based; conditions: IL-6 stimulation, STAT3 phosphorylation at Tyr705 (AlphaLISA), read-out: Inhibitory Activity Against JAK1 IC50
JAK1, sequence (P23458 whole entry): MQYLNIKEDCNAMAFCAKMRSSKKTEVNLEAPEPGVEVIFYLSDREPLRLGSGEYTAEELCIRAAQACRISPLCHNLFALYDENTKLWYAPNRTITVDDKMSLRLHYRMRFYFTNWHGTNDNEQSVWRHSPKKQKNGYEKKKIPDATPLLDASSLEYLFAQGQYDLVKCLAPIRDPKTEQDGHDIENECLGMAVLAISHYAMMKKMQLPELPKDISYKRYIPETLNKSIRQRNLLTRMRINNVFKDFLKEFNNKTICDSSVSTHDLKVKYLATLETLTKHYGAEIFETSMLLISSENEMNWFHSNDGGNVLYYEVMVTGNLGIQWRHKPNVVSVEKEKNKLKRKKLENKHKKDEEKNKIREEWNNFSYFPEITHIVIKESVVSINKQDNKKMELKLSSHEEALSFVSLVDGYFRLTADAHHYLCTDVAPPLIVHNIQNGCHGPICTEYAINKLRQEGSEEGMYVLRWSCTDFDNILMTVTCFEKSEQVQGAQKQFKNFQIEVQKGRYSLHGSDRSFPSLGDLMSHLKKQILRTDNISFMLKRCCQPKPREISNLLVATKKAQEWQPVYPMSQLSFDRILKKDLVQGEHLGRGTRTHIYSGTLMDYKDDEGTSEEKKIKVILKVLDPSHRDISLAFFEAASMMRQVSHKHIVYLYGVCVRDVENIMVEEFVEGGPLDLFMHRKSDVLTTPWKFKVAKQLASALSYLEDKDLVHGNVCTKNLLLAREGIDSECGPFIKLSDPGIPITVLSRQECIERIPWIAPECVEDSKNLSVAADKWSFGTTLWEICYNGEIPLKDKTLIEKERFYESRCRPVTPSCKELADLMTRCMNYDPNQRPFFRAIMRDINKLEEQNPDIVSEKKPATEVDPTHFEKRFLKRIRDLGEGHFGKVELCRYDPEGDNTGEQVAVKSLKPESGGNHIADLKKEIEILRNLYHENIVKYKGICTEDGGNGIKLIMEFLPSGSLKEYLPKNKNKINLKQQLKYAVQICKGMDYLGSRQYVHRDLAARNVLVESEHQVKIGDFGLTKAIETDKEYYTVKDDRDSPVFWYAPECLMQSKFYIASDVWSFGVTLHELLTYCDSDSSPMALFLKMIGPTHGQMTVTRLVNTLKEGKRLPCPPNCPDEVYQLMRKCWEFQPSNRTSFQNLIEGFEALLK
Method: The cellular potency of a compound on JAK1 or JAK2 inhibition is determined by measuring the cytokine-mediated phosphorylation of STAT proteins in TF-1 cells.
Human cytokines of IL-6 (R&D Systems, Cat. No. 206-IL-010/CF) and GM-CSF (R&D Systems, Cat. No. 215-GM-010/CF) are reconstituted at 10 μg/mL in D-PBS containing 0.1% BSA (Sigma, Cat. No. A8577) and human EPO (R&D Systems, Cat. No. 287-TC-500) at 500 U/mL in D-PBS containing 0.1% BSA. TF-1 cells (ATCC, CRL-2003) were grown in RPMI1640 (ATCC, Cat. No. 30-2001) supplemented with 2 ng/mL of recombinant human GM-CSF, 10% FBS (Gibco, Cat. No. 10437-028), and 100 U/mL penicillin-streptomycin (Gibco, Cat. No. 15140-122). The cells were maintained and propagated between 1×10^5 cells/mL to 7.5×10^5 cells/mL. Aliquots of the cells from early passages were preserved for liquid nitrogen storage. Frozen vials of the cells were thawed at 37° C. water bath. The cells were spun to remove freezing medium. The newly revived frozen cells were adapted in culture for 5-7 days before used for compound testing. The cells used in for compound testing were less than 20 subculture passages or 3 months in culture.
To test compounds, the TF-1 cells were harvested at a density of 3 to 7×10^5 cells/mL by centrifugation. After removing the culture medium, the resulting cell pellet was suspended and washed once by centrifugation with HBSS buffer (Gibco, Cat. No. 14025-092) containing 0.1% BSA. The cell pellet was resuspended in HBSS buffer at 7.5×10^6 cells/mL. Four micro-liters of the cells (3×10^4 cells in total) were added to each well of a white 384-well plate (Packard, Cat. No. 6005214).
The compounds were first diluted in dimethylsulfoxide (DMSO) (Sigma, Cat. No. D2650) to generate 9 3-fold diluted dosing concentrations in a 96-well polypropylene plate (Corning, Cat. No. 3365), followed by addition of HBSS buffer for another 125-fold dilution. To the cells, 2 μL of the diluted compounds were added and mixed by tapping the plate several times. The cells were incubated for 2 hrs of treatment. DMSO was used as a control and similarly diluted along and added to the cells.
To assay JAK1 inhibition, 2 μL of IL-6 diluted at 400 ng/mL (4×) in HBSS containing 0.1% BSA was added to the treated cells. The cells were then incubated for 30 min of cytokine treatment and lysed at the end by addition of 2 μL of 5×AlphaLISA SureFire Ultra lysis buffer from Perkin Elmer. The plate was agitated on a plate shaker for 10 min at room temperature. The cellular JAK1 activity was determined by measuring STAT3 phosphorylation at Tyr705 in lysates using the AlphaLISA SureFire Ultra kit (Perkin Elmer, Cat. No. ALSU-PST3-A500). A volume of 5 μL of acceptor mix and donor mix was added sequentially to lysates following the product protocol. The assay signals were recorded on EnVision plate reader (Perkin Elmer) with AlphaScreen optics setting.
The results are summarized in Table 3, where A represents a value no greater than 500 nM, B represents a value greater than 500 nM but no greater than 1 μM, C represents a value greater than 1 μM but no greater than 5 μM, and D represents a value greater than 5 μM.

[6] = molecular target: human tyrosine kinase 2 (TYK2), recombinant catalytic domain (Homo sapiens (Human), UniProt P29597); assay: LanthaScreen TR-FRET enzymatic assay, TYK2; type: biochemical; conditions: TR-FRET, 1 mM ATP, GFP-STAT1 substrate; read-out: Inhibitory Activity IC50 TYK2
human tyrosine kinase 2 (TYK2), recombinant catalytic domain (Homo sapiens (Human), UniProt P29597), sequence (P29597 833-1187): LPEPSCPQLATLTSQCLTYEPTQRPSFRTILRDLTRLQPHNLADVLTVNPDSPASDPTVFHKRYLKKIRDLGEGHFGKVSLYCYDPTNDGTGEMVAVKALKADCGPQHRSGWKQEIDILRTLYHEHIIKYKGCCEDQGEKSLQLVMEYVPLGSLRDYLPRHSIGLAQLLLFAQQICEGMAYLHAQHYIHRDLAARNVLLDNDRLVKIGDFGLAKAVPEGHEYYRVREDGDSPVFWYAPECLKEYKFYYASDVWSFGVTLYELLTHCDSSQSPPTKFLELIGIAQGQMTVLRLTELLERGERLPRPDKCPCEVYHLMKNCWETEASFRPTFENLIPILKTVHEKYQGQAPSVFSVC
Method: as §1, §2, §3, §4

[7] = system: human tyrosine kinase 2 (TYK2), recombinant catalytic domain; assay: LanthaScreen TR-FRET enzymatic assay, TYK2; type: biochemical; conditions: ratio of IC50 against TYK2 over IC50 against JAK1
Method: as §1, §2, §3, §4

Structure (SMILES)	IC50 [1] [nM]	IC50 [2] [nM]	Selectivity JAK2/JAK1 [2]	IC50 [3] [nM]	Selectivity JAK3/JAK1 [4]	IC50 [5] [nM]	IC50 [6] [nM]	Selectivity TYK2/JAK1 [7]
O=C(Nc1cn2c(-c3ccc(CN4CCS(=O)(=O)CC4)cc3)cccc2n1)C1CC1 [Compound 1, N-(5-(4-((1,1-Dioxo-1-thiomorpholino)methyl)phenyl)imidazo[1,2-a]pyridin-2-yl) cyclopropanecarboxamide]	≤ 500	1000 to 5000	A′ (A′ represents a ratio of greater than 8)	> 5000	A′ (A′ represents a ratio of greater than 8)	≤ 500	1000 to 5000	A′ (A′ represents a ratio of greater than 8)
O=C(Nc1cn2c(-c3ccc(CN4CCS(=O)(=O)CC4)c(F)c3)cccc2n1)C1CC1 [Compound 28]	≤ 500	500 to 1000	A′ (A′ represents a ratio of greater than 8)	> 5000	A′ (A′ represents a ratio of greater than 8)	≤ 500	500 to 1000	A′ (A′ represents a ratio of greater than 8)
